Consider one molecule from PMC12495326 (The Journal of Biological Chemistry, 2025).

The target of this test is T1, recombinant hDHFR (human dihydrofolate reductase) (Homo sapiens, UniProt P00374).
T1 construct: gene DHFR
T1 sequence (P00374 1-187): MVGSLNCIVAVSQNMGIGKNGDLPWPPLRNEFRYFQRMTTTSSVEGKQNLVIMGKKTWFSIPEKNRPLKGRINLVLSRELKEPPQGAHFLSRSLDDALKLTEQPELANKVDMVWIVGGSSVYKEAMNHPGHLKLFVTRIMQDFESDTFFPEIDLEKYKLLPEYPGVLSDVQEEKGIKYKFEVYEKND
The experiment in a line: in vitro DHFR enzyme activity assay, dose-response. The class given is biochemical.

pIC50: −log10 of the molar value.

On to `CCc1nc(N)nc(N)c1-c1cc(Cl)cc(Cl)c1` [WCDD114], for which the pIC50 – broadly, the IC50 on a negative log10 scale, so that one unit is a factor of ten – was 6.85.
